The test system of one assay is KB. Kind of assay: Cytotoxicity against human KB cells. The class given is functional, cell-based.
In a further assay the test system is DU-145. Put plainly: Cytotoxicity against human DU145 cells. The assay is classed as functional, cell-based.
A short description of assay [1]: Cytotoxicity against human KBVIN cells. The assay is classed as functional, cell-based.
The subject of a further assay is A549. Kind of assay: Cytotoxicity against human A549 cells. The assay is classed as functional, cell-based.
For another assay, the system named is HepG2. Put plainly: Cytotoxicity against human HepG2 cells. The class given is functional, cell-based.
A short description of assay [2]: Cytotoxicity against human Hep3B cells. The assay is classed as functional, cell-based, Hep 3B2.
The nature of assay [3]: Antiinflammatory activity in human neutrophils assessed as inhibition of fMLP/CB-induced elastase release. The settings on record: Neutrophil. The class given is functional, cell-based.
A short description of assay [4]: Antiinflammatory activity in human neutrophils assessed as inhibition of fMLP/CB-indcued superoxide anion production. The class given is functional, cell-based. The settings on record: Neutrophil.
The test system of the next assay is Neutrophil. Put plainly: Ratio of LY294002 IC50 to compound IC50 for inhibition of fMLP/CB-indcued elastase release in human neutrophils. The class given is functional.

Structures are written as SMILES.

Take `COc1cc(O)c(C(=O)c2ccccc2)cc1O` [CEAROIN]: the IC50 with KB is 35.3 µM; with DU-145, over 10 µg/mL; in assay [1], 32.2 µM; with A549 it was over 10 µg/mL.
As to `COc1cc2oc(=O)cc(-c3ccccc3)c2cc1O` [DALBERGIN], the IC50 (in the assay on KB; in the assay on DU-145; in [1]; in the assay with A549) was over 10 µg/mL in each case.
Take `COc1cccc2c1C(=O)c1c(O)c3c(c(O)c1C2=O)C[C@@](O)(C(=O)CO)C[C@@H]3O[C@H]1C[C@H](N)[C@H](O)[C@H](C)O1` [DOXORUBICIN]: the IC50 with HepG2 worked out at 1.29 µM; in [2], 1.57 µM.
In the case of `O=c1cc(N2CCOCC2)oc2c(-c3ccccc3)cccc12` [LY-294002], the IC50 in assay [3] came to 6.48 µM; in assay [4], 3.84 µM.
As for `COC1=CC(=O)c2cc(-c3ccc(OC)c(O)c3)c3cc(O)c(OC)cc3c2C1=O` [PTEROLINUS K], the IC50 with KB was over 10 µg/mL; in the assay on HepG2 it was over 10 µg/mL; in the assay on DU-145, over 10 µg/mL; in assay [1], over 10 µg/mL; in [3] it was 4.24 µM; in assay [2], 10.9 µM. The IC50 in the assay with A549 is over 10 µg/mL; in assay [4] it was 0.99 µM.
Consider `COc1ccc(C(=O)/C=C/c2cc(O)c(OC)cc2O)cc1O` [PTEROLINUS L], for which the IC50 in the assay with KB is 17.2 µM; in the assay on HepG2, 20.4 µM; in the assay on DU-145 it was 29.8 µM; in [1] it was 22.4 µM; in assay [3], 0.95 µM; in [2] it was 20.9 µM. This compound also displayed an IC50 with A549 of 21.9 µM. The “Ratio IC50” value with Neutrophil is reported as 6.

Source of the values: ChEMBL document CHEMBL1828505, “Bioactive components from the heartwood of Pterocarpus santalinus” (Bioorg Med Chem Lett, 2011).
